Laboratory results from patent publication US12251387B2, “Substituted quinoxalines and benzo[c][1,2,5]oxadiazoles as DNA-PK inhibitors” (Vertex Pharmaceuticals Incorporated, priority 2013, dated 2025).

Target: DNA-PK (Homo sapiens, UniProt P78527)
Assay: DNA-PK Inhibition Assay (standard radiometric kinase assay, 33P-ATP, peptide substrate)
Assay type: biochemical
Settings: radiometric assay, approximately 6 nM DNA-PK, 100 μM ATP, 45 min; fit to competitive tight-binding inhibition; read-out: Ki for the inhibition of DNA-PK
Procedure, shortened: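 Radiometric transfer of 33P from ATP (100 μM) to peptide substrate (0.8 mg/mL) by about 6 nM DNA-PK with 10 μg/mL sheared dsDNA, pH 7.5 HEPES/MgCl2, 45 min, phosphoric acid quench, filter capture and scintillation counting. Ki fitted to a competitive tight-binding inhibition model.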

| SMILES | Ki |
| --- | --- |
| CN(C)CCNC(=O)c1cnc(N[C@H]2CC[C@@H](Oc3cc(N4CCOCC4)cc4nccnc34)CC2)nc1 [Compound 328] | < 100 nM |
| Cn1cnc2c(N[C@H]3CC[C@@H](Oc4cc(N5CCOCC5)cc5nccnc45)CC3)ncnc21 [Compound 546] | < 100 nM |
| CN(C)CCOc1ccnc(N[C@H]2CC[C@@H](Oc3cc(N4CCOCC4)cc4nccnc34)CC2)n1 [Compound 559] | < 100 nM |
| CN(C)CCc1cnc(N[C@H]2CC[C@@H](Oc3cc(N4CCOCC4)cc4nccnc34)CC2)nc1 [Compound 431] | < 100 nM |
| COc1ccnc(N[C@H]2CC[C@@H](Oc3cc(N4CCOCC4)cc4nccnc34)CC2)c1 [Compound 627] | < 100 nM |
| NC(=O)c1cnc2cc(N3CCOCC3)cc(O[C@H]3CC[C@@H](Nc4ncccn4)CC3)c2n1 [Compound 606] | < 100 nM |
| CN1CCN(CCOc2ccc(N[C@H]3CC[C@@H](Oc4cc(N5CCOCC5)cc5nccnc45)CC3)nc2)CC1 [Compound 655] | < 100 nM |
| c1cnc2c(O[C@H]3CC[C@@H](Nc4ccc(C5CCC5)nn4)CC3)cc(N3CCOCC3)cc2n1 [Compound 601] | < 100 nM |
| CN1CCN(Cc2cnc(N[C@H]3CC[C@@H](Oc4cc(N5CCOCC5)cc5nccnc45)CC3)nc2)CC1 [Compound 497] | < 100 nM |
| Cn1nc(N[C@H]2CC[C@@H](Oc3cc(N4CCOCC4)cc4nccnc34)CC2)c2ccccc21 [Compound 298] | < 100 nM |
| Cc1cnc(C)c(N[C@H]2CC[C@@H](Oc3cc(N4CCOCC4)cc4nccnc34)CC2)n1 [Compound 333] | < 100 nM |
| CN1CCc2c(N[C@H]3CC[C@@H](Oc4cc(N5CCOCC5)cc5nccnc45)CC3)ncnc21 [Compound 473] | < 100 nM |
| Cc1cnc2cc(N3CCOCC3)cc(O[C@H]3CC[C@@H](Nc4ncc(C5CCN(C)CC5)cn4)CC3)c2n1 [Compound 544] | < 100 nM |
| CCN1CCC(c2cnc(N[C@H]3CC[C@@H](Oc4cc(N5CCOCC5)cc5nccnc45)CC3)nc2)CC1 [Compound 523] | < 100 nM |
| c1cc(N[C@H]2CC[C@@H](Oc3cc(N4CCOCC4)cc4nccnc34)CC2)nc(CN2CCCCC2)n1 [Compound 496] | < 100 nM |
| c1cnc2c(O[C@H]3CC[C@@H](Nc4ccc5c(n4)OCCO5)CC3)cc(N3CCOCC3)cc2n1 [Compound 631] | < 100 nM |

| SMILES | Ki |
| --- | --- |
| [2H]C([2H])([2H])c1nccc(N[C@H]2CC[C@@H](Oc3cc(N4CCOCC4)cc4nccnc34)CC2)n1 [Compound 478] | < 100 nM |
| c1cnc(NC[C@H]2C[C@@H](Oc3cc(N4CCOCC4)cc4nccnc34)C2)nc1 [Compound 307] | < 100 nM |
| CCOc1cnc(N[C@H]2CC[C@@H](Oc3cc(N4CCOCC4)cc4nccnc34)CC2)cn1 [Compound 334] | < 100 nM |
| CC(C)Oc1cc(N[C@H]2CC[C@@H](Oc3cc(N4CCOCC4)cc4nccnc34)CC2)ccn1 [Compound 349] | < 100 nM |
| c1ccc(N[C@H]2CC[C@@H](Oc3cc(N4CCOCC4)cc4nccnc34)CC2)cc1 [Compound 648] | < 100 nM |
| Cc1cccc(N[C@H]2CC[C@@H](Oc3cc(N4CCOCC4)cc4nccnc34)CC2)n1 [Compound 623] | < 100 nM |
| Clc1nc(N[C@H]2CC[C@@H](Oc3cc(N4CCOCC4)cc4nccnc34)CC2)nc2cc[nH]c12 [Compound 514] | < 100 nM |
| CNC(=O)c1ccnc(N[C@H]2CC[C@@H](Oc3cc(C4=CCOCC4)cc4nccnc34)CC2)n1 [Compound 319] | < 100 nM |
| CN1CCc2cnc(N[C@H]3CC[C@@H](Oc4cc(N5CCOCC5)cc5nccnc45)CC3)nc2C1 [Compound 556] | < 100 nM |
| c1cn2ccnc2c(N[C@H]2CC[C@@H](Oc3cc(N4CCOCC4)cc4nccnc34)CC2)n1 [Compound 372] | < 100 nM |
| CCc1nccc(N[C@H]2CC[C@@H](Oc3cc(N4CCOCC4)cc4nccnc34)CC2)n1 [Compound 439] | < 100 nM |
| c1cnc2c(O[C@H]3CC[C@@H](Nc4cc5[nH]ccc5cn4)CC3)cc(N3CCOCC3)cc2n1 [Compound 540] | < 100 nM |
| COc1ncnc(N[C@H]2CC[C@@H](Oc3cc(N4CCOCC4)cc4nccnc34)CC2)c1F [Compound 376] | < 100 nM |
| CNC(=O)c1cc(N[C@H]2CC[C@@H](Oc3cc(N4CCOCC4)cc4nccnc34)CC2)ccc1F [Compound 405] | < 100 nM |
| c1cc2ncnn2c(N[C@H]2CC[C@@H](Oc3cc(N4CCOCC4)cc4nccnc34)CC2)n1 [Compound 542] | < 100 nM |

Further lines, results first:

| Ki | SMILES |
| --- | --- |
| < 100 nM | Cc1ncnc(N[C@H]2CC[C@@H](Oc3cc(N4CCOCC4)cc4nccnc34)CC2)c1F [Compound 477] |
| < 100 nM | O=C1NCCc2nc(N[C@H]3CC[C@@H](Oc4cc(N5CCOCC5)cc5nccnc45)CC3)sc21 [Compound 322] |
| < 100 nM | Cc1cn(C)c(N[C@H]2CC[C@@H](Oc3cc(N4CCOCC4)cc4nccnc34)CC2)n1 [Compound 646] |
| < 100 nM | CC(C)Nc1cnc(N[C@H]2CC[C@@H](Oc3cc(N4CCOCC4)cc4nccnc34)CC2)nc1 [Compound 152] |
| < 100 nM | c1cnc2c(O[C@H]3CC[C@@H](Nc4ncc(OCCN5CCCC5)cn4)CC3)cc(N3CCOCC3)cc2n1 [Compound 509] |
| < 100 nM | c1cnc(N[C@H]2CC[C@@H](Oc3cc(N4CC5CC(C4)O5)cc4nccnc34)CC2)nc1 [Compound 291, N-[4-[7-(6-oxa-3-azabicyclo[3.1.1]heptan-3-yl)quinoxalin-5-yl]oxycyclohexyl]pyrimidin-2-amine] |
| < 100 nM | COc1cncnc1N[C@H]1CC[C@@H](Oc2cc(N3CCOCC3)cc3nccnc23)CC1 [Compound 438] |
| < 100 nM | Cc1nccc(N(C)[C@H]2CC[C@@H](Oc3cc(N4CCOCC4)cc4nccnc34)CC2)n1 [Compound 399] |
| < 100 nM | Cc1ncc(N[C@H]2CC[C@@H](Oc3cc(N4CCOCC4)cc4nccnc34)CC2)c(C)n1 [Compound 449] |
| < 100 nM | c1cnc2c(O[C@H]3C[C@@H](Nc4ncnc5ccoc45)C3)cc(N3CCOCC3)cc2n1 [Compound 356] |
| < 100 nM | c1cnc2c(O[C@H]3C[C@@H](Nc4ncc5c(n4)COC5)C3)cc(N3CCOCC3)cc2n1 [Compound 355] |
| < 100 nM | Cc1cc(N[C@H]2CC[C@@H](Oc3cc(N4CCOCC4)cc4nccnc34)CC2)n2ncnc2n1 [Compound 536] |
| < 100 nM | OC1(c2ccc(N[C@H]3CC[C@@H](Oc4cc(N5CCOCC5)cc5nccnc45)CC3)cn2)COC1 [Compound 468] |
| < 100 nM | c1cnc(NC[C@H]2CC[C@@H](Oc3cc(N4CCOCC4)cc4nccnc34)CC2)nc1 [Compound 348] |
| < 100 nM | CN(C)Cc1ccnc(N[C@H]2CC[C@@H](Oc3cc(N4CCOCC4)cc4nccnc34)CC2)n1 [Compound 483] |
| < 100 nM | CC(C)(C)OC(=O)N1CCC(c2cnc(N[C@H]3CC[C@@H](Oc4cc(N5CCOCC5)cc5nccnc45)CC3)nc2)C1 (stereo partly shown) [Compound 570] |
| < 100 nM | COc1nc(Cl)nc(N[C@H]2CC[C@@H](Oc3cc(N4CCOCC4)cc4nccnc34)CC2)n1 [Compound 609] |
| < 100 nM | c1cc(N[C@H]2CC[C@@H](Oc3cc(N4CCOCC4)cc4nccnc34)CC2)nc(OCCN2CCCCC2)n1 [Compound 493] |
| < 100 nM | CN(C)c1ncnc(N[C@H]2CC[C@@H](Oc3cc(N4CCOCC4)cc4nccnc34)CC2)c1F [Compound 512] |
| < 100 nM | c1cnc2c(O[C@H]3CC[C@@H](Nc4ncc(CN5CCCCC5)cn4)CC3)cc(N3CCOCC3)cc2n1 [Compound 495] |

| Ki | SMILES |
| --- | --- |
| < 100 nM | OCc1ccnc(N[C@H]2CC[C@@H](Oc3cc(N4CCOCC4)cc4nccnc34)CC2)n1 [Compound 457] |
| < 100 nM | Cc1nccc(N[C@H]2CC[C@@H](Oc3cc(C4=CCOCC4)cc4nccnc34)CC2)n1 [Compound 352] |
| < 100 nM | Cc1ccnc(N[C@H]2CC[C@@H](Oc3cc(N4CCOCC4)cc4nccnc34)CC2)c1 [Compound 283] |
| < 100 nM | c1cc(N[C@H]2CC[C@@H](Oc3cc(N4CCOCC4)cc4nccnc34)CC2)ncn1 [Compound 486] |
| < 100 nM | OCc1ccnc(N[C@H]2CC[C@@H](Oc3cc(N4CCOCC4)cc4nccnc34)CC2)c1 [Compound 615] |
| < 100 nM | c1cc(CN2CCOCC2)nc(N[C@H]2CC[C@@H](Oc3cc(N4CCOCC4)cc4nccnc34)CC2)n1 [Compound 505] |
| < 100 nM | CNC(=O)c1cc(C)nc(N[C@H]2CC[C@@H](Oc3cc(N4CCOCC4)cc4nccnc34)CC2)n1 [Compound 308] |
| < 100 nM | Clc1nccc(N[C@H]2CC[C@@H](Oc3cc(N4CCOCC4)cc4nccnc34)CC2)n1 [Compound 533] |
| < 100 nM | OCc1cc(N[C@H]2CC[C@@H](Oc3cc(N4CCOCC4)cc4nccnc34)CC2)ncn1 [Compound 424] |
| < 100 nM | CN1CCc2ncnc(N[C@H]3CC[C@@H](Oc4cc(N5CCOCC5)cc5nccnc45)CC3)c2C1 [Compound 398] |
| < 100 nM | Cc1nccc(N[C@H]2CC[C@@H](Oc3cc(N4CC5CC(C4)O5)cc4nccnc34)CC2)n1 [Compound 353] |
| < 100 nM | Clc1nc(N[C@H]2CC[C@@H](Oc3cc(N4CCOCC4)cc4nccnc34)CC2)nc2[nH]ccc12 [Compound 501] |
| < 100 nM | O=C(N[C@H]1CC[C@@H](Oc2cc(N3CCOCC3)cc3nccnc23)CC1)N1CCOCC1 [Compound 412] |
| < 100 nM | c1cnc(O[C@H]2CC[C@H](Oc3cc(N4CCOCC4)cc4nccnc34)CC2)nc1 [Compound 34, 4-(8-(((trans)-4-(pyrimidin-2-yloxy)cyclohexyl)oxy)quinoxalin-6-yl)morpholine] |
| < 100 nM | Cc1ncnc(N[C@H]2CC[C@@H](Oc3cc(N4CCOCC4)cc4nccnc34)CC2)c1C [Compound 491] |
| < 100 nM | COc1c(N[C@H]2CC[C@@H](Oc3cc(N4CCOCC4)cc4nccnc34)CC2)ncnc1N(C)C [Compound 388] |
| < 100 nM | CNC(=O)c1ccnc(N[C@H]2CC[C@@H](Oc3cc(N4CCOCC4)cc4nccnc34)CC2)n1 [Compound 350] |
| < 100 nM | c1nc2c(c(N[C@H]3CC[C@@H](Oc4cc(N5CCOCC5)cc5nccnc45)CC3)n1)CCC2 [Compound 487] |
| < 100 nM | Fc1cccc(N[C@H]2CC[C@@H](Oc3cc(N4CCOCC4)cc4nccnc34)CC2)n1 [Compound 614] |
